Tests used:
CDK2/cyclin A2 = biological target: T1, CDK2/cyclin A2 (Homo sapiens, UniProt P24941); assay: Human CDK2/cyclin A2 inhibitory activity (QS S Assist CDK2/Cyclin A2_FP Kit, IMAP fluorescent polarization); type: biochemical; details: read-out: CDK2 Activity symbol
T1 construct: purchased Carna Biosciences, Inc. QS S Assist CDK2/Cyclin A2_FP Kit
Procedure: Human CDK2/Cyclin A2 Inhibitory Activity
(§1) Each compound was analyzed for CDK2/cyclin A2 inhibitory activity with an assay kit (QS S Assist CDK2/Cyclin A2_FP Kit, available from Carna Biosciences, Inc.). This assay kit determines kinase activity on the basis of the IMAP technology by Molecular Devices. Specifically, the kinase activity is determined through quantification of a variation in fluorescent polarization caused by binding of a kinase-phosphorylated fluorescent substance to an IMAP-binding reagent.
An assay buffer was prepared by 10-fold dilution of the 10× assay buffer attached to the kit with distilled water, and each solution was prepared with the assay buffer. The assay buffer contained 20 mM HEPES (pH 7.4), 0.01% Tween 20, and 2 mM dithiothreitol. A test compound solution was prepared by dilution of the test compound with dimethyl sulfoxide (DMSO) to a concentration 100 times higher than the final concentration and then 25-fold dilution with the assay buffer to a concentration four times higher than the final concentration. An ATP/substrate/Metal solution was prepared by five-fold dilution of the 5×ATP/substrate/Metal solution attached to the kit with the assay buffer. An enzyme solution was prepared by dilution of the CDK2/cyclin A2 attached to the kit with the assay buffer to a concentration twice higher than the final concentration (final concentration of CDK2/cyclin A2: 2.5 ng/well). A detection reagent was prepared by five-fold dilution of 5×IMAP-binding buffer A with distilled water and 400-fold dilution of the IMAP-binding reagent with the diluted buffer.
(§2) The test compound solution (5 μL/well) and the ATP/substrate/Metal solution (5 μL/well) were added to a 384-well plate, and the enzyme solution or the assay buffer (10 μL/well) was added to the plate (total amount of the reaction mixture: 20 μL/well) for initiation of enzymatic reaction. […] The reaction was performed at room temperature for 60 minutes, and the detection reagent (60 μL/well) was then added to the plate, followed by further reaction for 30 minutes at room temperature under light shielding conditions. Subsequently, fluorescent polarization was determined with a microplate reader at an excitation wavelength of 485 nm and an emission wavelength of 535 nm.
The percent inhibition of enzyme activity was calculated for each test compound (note: enzyme activity=100% in the case of addition of the enzyme solution and addition of DMSO instead of the test compound solution, whereas enzyme activity […] in the case of addition of the assay buffer instead of the enzyme solution and addition of DMSO instead of the test compound solution). The percent inhibition of enzyme activity was fitted to a dose-response curve, to determine a 50% inhibitory concentration against CDK2/cyclin A2.
In each table, “+++” corresponds to IC50<10 nM, “++” 10 nM≤IC50<100 nM, and “+” 100 nM≤IC50.

CDK4/cyclin D3 = biological target: T2, CDK4/cyclin D3 (Homo sapiens, UniProt P11802); assay: Human CDK4/cyclin D3 inhibitory activity (QS S Assist CDK4/Cyclin D3_FP Kit, IMAP fluorescent polarization); type: biochemical; details: read-out: CDK4 Activity symbol
T2 construct: purchased Carna Biosciences, Inc. QS S Assist CDK4/Cyclin D3_FP Kit
T2 sequence (P11802 whole entry): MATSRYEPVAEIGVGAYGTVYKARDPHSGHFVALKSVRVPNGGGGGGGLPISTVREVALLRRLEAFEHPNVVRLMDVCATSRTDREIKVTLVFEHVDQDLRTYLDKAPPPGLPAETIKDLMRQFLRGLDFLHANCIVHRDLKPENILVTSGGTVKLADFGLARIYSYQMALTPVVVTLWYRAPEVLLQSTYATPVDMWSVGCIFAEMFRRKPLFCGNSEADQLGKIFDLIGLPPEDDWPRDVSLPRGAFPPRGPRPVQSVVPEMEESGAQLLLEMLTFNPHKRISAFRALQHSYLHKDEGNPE
T2 sequence (P30281 whole entry partner): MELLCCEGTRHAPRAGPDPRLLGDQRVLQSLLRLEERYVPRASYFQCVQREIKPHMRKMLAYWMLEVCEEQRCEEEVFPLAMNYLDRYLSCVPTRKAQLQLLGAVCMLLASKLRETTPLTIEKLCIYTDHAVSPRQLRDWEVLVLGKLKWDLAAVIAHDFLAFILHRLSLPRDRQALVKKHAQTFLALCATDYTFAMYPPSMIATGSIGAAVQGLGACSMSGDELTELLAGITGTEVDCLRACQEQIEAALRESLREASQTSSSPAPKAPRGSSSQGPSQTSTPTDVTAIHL
Procedure: Human CDK4/Cyclin D3 Inhibitory Activity
as §1, with “CDK4/cyclin D3” for “CDK2/cyclin A2”, “CDK4/Cyclin D3_FP” for “CDK2/Cyclin A2_FP”
Each solution was prepared with the 10× assay buffer attached to the kit or a separately prepared assay buffer having the same composition as the assay buffer attached to the kit. An assay buffer was prepared by 10-fold dilution of the 10× assay buffer with distilled water. The assay buffer contains 20 mM HEPES (pH 7.4), 0.01% Tween20, and 2 mM dithiothreitol. A test compound solution was prepared by dilution of the test compound with dimethyl sulfoxide (DMSO) to a concentration 100 times higher than the final concentration and then 25-fold dilution with the assay buffer to a concentration four times higher than the final concentration. An ATP/substrate/Metal solution was prepared by five-fold dilution of the 5×ATP/substrate/Metal solution attached to the kit with the assay buffer. An enzyme solution was prepared by dilution of the CDK4/cyclin D3 attached to the kit with the assay buffer to a concentration twice higher than the final concentration (final concentration of CDK4/cyclin D3: 12.5 to 25 ng/well). A detection reagent was prepared by five-fold dilution of each of 5×IMAP-binding buffer A and 5×IMAP-binding buffer B with distilled water, mixing of IMAP-binding buffer A with IMAP-binding buffer B at a ratio of 85:15, and 400-fold dilution of the IMAP-binding reagent with the mixed buffer.
as §2, with “for 45” for “for 60”
The percent inhibition of enzyme activity was calculated for each test compound (note: enzyme activity=100% in the case of addition of the enzyme solution and addition of DMSO instead of the test compound solution, whereas enzyme activity […] in the case of addition of the assay buffer instead of the enzyme solution, and addition of DMSO instead of the test compound solution). The percent inhibition of enzyme activity was fitted to a dose-response curve, to determine a 50% inhibitory concentration against CDK4/cyclin D3.
In each table, “+++” corresponds to IC50<10 nM. “++” 10 nM […] IC50<100 nM, and “+” 100 nM≤IC50.

| Structure (SMILES) | IC50 (CDK2/cyclin A2) [nM] | IC50 (CDK4/cyclin D3) [nM] |
| --- | --- | --- |
| CN1CCN(c2ccc(Nc3ncc4cc(CO)nc(N5CCOCC5)c4n3)nc2)CC1 [Compound 1] | ≥ 100 | < 10 |
| CN1CCN(c2ccc(Nc3ncc4cc(CO)nc(N5CCCCC5)c4n3)nc2)CC1 [Compound 2] | ≥ 100 | < 10 |
| CN1CCN(c2ccc(Nc3ncc4cc(CO)nc(N5CCCCC5=O)c4n3)nc2)CC1 [Compound 3] | ≥ 100 | ≥ 100 |
| CN1CCN(c2ccc(Nc3ncc4cc(C(F)F)nc(N5CCOCC5)c4n3)nc2)CC1 [Compound 4] | ≥ 100 | 10 to 100 |
| CN1CCN(c2ccc(Nc3ncc4cc(CO)nc(C5CCCCC5)c4n3)nc2)CC1 [Compound 5] | ≥ 100 | < 10 |
| CN1CCN(c2ccc(Nc3ncc4cc(CO)nc(-c5ccccc5)c4n3)nc2)CC1 [Compound 6] | ≥ 100 | < 10 |
| OCc1cc2cnc(Nc3ccc(N4CCNCC4)cn3)nc2c(N2CCOCC2)n1 [Compound 7] | ≥ 100 | < 10 |
| FC(F)c1cc2cnc(Nc3ccc(N4CCNCC4)cn3)nc2c(N2CCOCC2)n1 [Compound 8] | ≥ 100 | 10 to 100 |
| OCc1cc2cnc(Nc3ccc(N4CCNCC4)cn3)nc2c(N2CCCCC2)n1 [Compound 9] |  | < 10 |
| OCc1cc2cnc(Nc3ccc(N4CCNCC4)cn3)nc2c(-c2ccccc2)n1 [Compound 10] |  | 10 to 100 |
| FC(F)c1cc2cnc(Nc3ccc(N4CCNCC4)cn3)nc2c(N2CCCCC2)n1 [Compound 11] |  | < 10 |
| FC(F)c1cc2cnc(Nc3ccc(N4CCNCC4)cn3)nc2c(-c2ccccc2)n1 [Compound 12] |  | < 10 |
| CN1CCN(c2ccc(Nc3ncc4cc(C(F)F)nc(N5CCCCC5)c4n3)nc2)CC1 [Compound 13] |  | < 10 |
| Cc1ccc(-c2nc(CO)cc3cnc(Nc4ccc(N5CCNCC5)cn4)nc23)cc1 [Compound 14] |  | < 10 |
| Cc1ccccc1-c1nc(CO)cc2cnc(Nc3ccc(N4CCNCC4)cn3)nc12 [Compound 15] |  | 10 to 100 |
| OCc1cc2cnc(Nc3ccc(N4CCNCC4)cn3)nc2c(-c2ccsc2)n1 [Compound 16] |  | < 10 |
| OCc1cc2cnc(Nc3ccc(N4CCNCC4)cn3)nc2c(-c2ccoc2)n1 [Compound 17] |  | 10 to 100 |
| Cc1ccc(-c2nc(CO)cc3cnc(Nc4ccc(N5CCN(C)CC5)cn4)nc23)cc1 [Compound 18] |  | < 10 |
| Cc1ccccc1-c1nc(CO)cc2cnc(Nc3ccc(N4CCN(C)CC4)cn3)nc12 [Compound 19] |  | < 10 |
| CN1CCN(c2ccc(Nc3ncc4cc(CO)nc(-c5ccsc5)c4n3)nc2)CC1 [Compound 20] |  | < 10 |
| CN1CCN(c2ccc(Nc3ncc4cc(CO)nc(-c5ccoc5)c4n3)nc2)CC1 [Compound 21] |  | 10 to 100 |
| CN1CCN(c2ccc(Nc3ncc4cc(CO)nc(C5=CCCCC5)c4n3)nc2)CC1 [Compound 22] |  | < 10 |
| O=C(O)c1cc2cnc(Nc3ccc(N4CCNCC4)cn3)nc2c(N2CCCCC2)n1 [Compound 23] |  | ≥ 100 |

| Structure (SMILES) | IC50 (CDK2/cyclin A2) [nM] | IC50 (CDK4/cyclin D3) [nM] |
| --- | --- | --- |
| CC(O)c1cc2cnc(Nc3ccc(N4CCNCC4)cn3)nc2c(N2CCCCC2)n1 (stereo not shown) [Compound 24] | ≥ 100 | < 10 |
| COC(=O)c1cc2cnc(Nc3ccc(N4CCNCC4)cn3)nc2c(N2CCCCC2)n1 [Compound 25] | ≥ 100 | 10 to 100 |
| CC(=O)c1cc2cnc(Nc3ccc(N4CCNCC4)cn3)nc2c(N2CCCCC2)n1 [Compound 26] | ≥ 100 | 10 to 100 |
| CN(C)C(=O)c1cc2cnc(Nc3ccc(N4CCNCC4)cn3)nc2c(N2CCCCC2)n1 [Compound 27] | ≥ 100 | 10 to 100 |
| NC(=O)c1cc2cnc(Nc3ccc(N4CCNCC4)cn3)nc2c(N2CCCCC2)n1 [Compound 28] | ≥ 100 | 10 to 100 |
| CNC(=O)c1cc2cnc(Nc3ccc(N4CCNCC4)cn3)nc2c(N2CCCCC2)n1 [Compound 29] | ≥ 100 | 10 to 100 |
| Cc1ccccc1-c1nc(C(F)F)cc2cnc(Nc3ccc(N4CCNCC4)cn3)nc12 [Compound 30] | ≥ 100 | < 10 |
| COCc1cc2cnc(Nc3ccc(N4CCNCC4)cn3)nc2c(N2CCOCC2)n1 [Compound 32] | ≥ 100 | 10 to 100 |
| Cc1c(CO)nc(N2CCOCC2)c2nc(Nc3ccc(N4CCNCC4)cn3)ncc12 [Compound 33] | ≥ 100 | < 10 |
| CCC(O)c1cc2cnc(Nc3ccc(N4CCNCC4)cn3)nc2c(N2CCOCC2)n1 (stereo not shown) [Compound 34] | ≥ 100 | 10 to 100 |
| OC(c1cc2cnc(Nc3ccc(N4CCNCC4)cn3)nc2c(N2CCOCC2)n1)C(F)(F)F (stereo not shown) [Compound 35, 2,2,2-trifluoro-1-(8-morpholino-2-((5-(piperazin-1-yl)pyridin-2-yl)amino)pyrido[3,4-d]pyrimidin-6-yl)ethanol] | ≥ 100 | 10 to 100 |
| CC(F)(F)c1cc2cnc(Nc3ccc(N4CCNCC4)cn3)nc2c(N2CCOCC2)n1 [Compound 36] | ≥ 100 | ≥ 100 |
| CC(C)(O)c1cc2cnc(Nc3ccc(N4CCNCC4)cn3)nc2c(N2CCOCC2)n1 [Compound 37] | ≥ 100 | 10 to 100 |
| OCCc1cc2cnc(Nc3ccc(N4CCNCC4)cn3)nc2c(N2CCOCC2)n1 [Compound 38] | ≥ 100 | ≥ 100 |
| C[C@@H](O)c1cc2cnc(Nc3ccc(N4CCNCC4)nn3)nc2c(N2CCCC2C(=O)O)n1 (stereo partly shown) [Compound 39] | ≥ 100 | < 10 |
| C[C@@H](O)c1cc2cnc(Nc3ccc(N4CCNCC4)nn3)nc2c(N2CCCC(C(=O)O)C2)n1 (stereo partly shown) [Compound 40] | ≥ 100 | < 10 |
| C[C@@H](O)c1cc2cnc(Nc3ccc(N4CCNCC4)nn3)nc2c(N2CCCCC2C(=O)O)n1 (stereo partly shown) [Compound 41] | ≥ 100 | < 10 |
| COC(C)c1cc2cnc(Nc3ccc(CN4CCNCC4)cn3)nc2c(N2CCCCC2)n1 (stereo not shown) [Compound 43] |  | < 10 |
| COC(C)c1cc2cnc(Nc3ccc(CN4CCNCC4)cn3)nc2c(N2CCC3CCNC3C2)n1 (stereo not shown) [Compound 44] |  | < 10 |
| COC(C)c1cc2cnc(Nc3ccc(CN4CCNCC4)cn3)nc2c(N2CCC(CO)CC2)n1 (stereo not shown) [Compound 45] |  | < 10 |
| COCC1CCN(c2nc(C(C)OC)cc3cnc(Nc4ccc(CN5CCNCC5)cn4)nc23)CC1 (stereo not shown) [Compound 46] |  | < 10 |
| CC(O)c1cc2cnc(Nc3ccc(CN4CCN(C)CC4)cn3)nc2c(N2CCOCC2C)n1 (stereo not shown) [Compound 291] |  | < 10 |

Reference: patent US11084814B2, “Pyrido[3, 4-d]pyrimidine derivative and pharmaceutically acceptable salt thereof” (Teijin Pharma Limited, priority 2016, dated 2021)
